Values joined by “and” are separate entries in the source; they are usually repeats but may differ in a detail not shown here. Equal entries are not always repeated.
Experiments:
[1] = target: T1, 42kDa cellular protein (RPN13) (Homo sapiens, UniProt Q16186); experiment: Competition for RA190B binding in HeLa cell lysate; conditions: HeLa lysate pre-treated with compound (5 μM) 45 min 4°C, then RA190B (20 μM)
T1 construct: endogenous in cells; host or cells: HeLa cell lysate
Procedure: NEM (1 mM) used as positive control.

TC1-OVA cells = experiment: Antigen presentation (H-2Kb/[…]) by TC1-OVA cells, flow cytometry; format: cell-based, mouse; conditions: 0.25 μM, 12 h
Procedure: TC1 cells stably expressing Ovalbumin (TC1-OVA) were plated (125,000 cells/well) in a 6 well plate in 2 mL RPMI complete medium.
C) TC1-OVA cells were plated (125,000 cells/well) in a 6 well plate in 2 mL/well in complete medium.

[2] = system: proteasome (4UbFL reporter); experiment: 4UbFL reporter assay in ES2 cells; format: cell-based, human; conditions: 4 h
Procedure: Sub-confluent cultures of cells were transfected with 4UbFL plasmid using TransIT 2020 reagent (Mirus Bio). Cells were seeded at 10,000 cells/well in 96-well plates 48 h post transfection, and incubated with compounds or vehicle (DMSO) at the doses and for the times indicated. Luciferase activity in cell lysate was determined with a luciferase assay kit (Promega) according to the manufacturer’s instructions. Bioluminescence was measured using a Glomax Multidetection system (Promega).
Two days later, luciferin was injected IP and the baseline enzymic activity of luciferase in the transduced muscle tissue was visualized as bioluminescence within this region of interest (ROI) using an IVIS imager. […]. After 4h, 24h and 48h the mice were again injected with luciferin, imaged and bioluminescence was quantified (Fig 5B). […] A) ES2 cells stably transduced with the 4UbFL reporter plasmid were treated with compounds at indicated doses for 4 h. The cells were then washed, lysed and their luminescence measured by a luminometer after addition of luciferin. B) Female CD1 mice electroporated with 4UbFL plasmid in their leg muscle. After 48 h, the mice were injected with luciferin, imaged by IVIS for their basal bioluminescence and randomized into two groups of five. […]. D) Up284 tissue distribution. […].

[3] = system: HMW polyUb proteins in ES2 cells; experiment: Western blot for polyubiquitinated proteins; conditions: by 12 h
HeLa cells = experiment: MTT cytotoxicity assay, HeLa cells, 72 h; format: cell-based; conditions: Homo sapiens, 72 h treatment
SKOV3 cells = experiment: MTT cytotoxicity assay, SKOV3 cells, 72 h; format: cell-based; conditions: Homo sapiens, SK-OV-3; 72 h treatment
[4] = system: proteasome (4UbFL reporter); experiment: 4UbFL reporter in ES2-4UbFL tumor and leg muscle of nude mice; format: in vivo, mouse; conditions: single IP dose Up284 20mg/kg or bortezomib 0.75 mg/kg, 4 h and 24 h
Procedure: A-C) Female nude mice were inoculated IP with ES2-luc cells, a human ovarian cancer line expressing luciferase. […] The IP tumor tissue and electroporated normal muscle tissue, being spatially distinct, were identified with separate regions of interest (ROI) after simultaneous imaging with IVIS.
Briefly mice were inoculated IP with ES2 cells stably expressing 4UbFL. After 48 h, the mice were injected with luciferin, imaged and then randomized into 3 groups (n = 5/group). Next, leg muscle of each mouse was electroporated with 4UbFL plasmid (considered as normal tissue). After 48 h (i.e. day 4) the mice were re-imaged and basal bioluminescence (0 h) was separately measured in the leg muscle and peritoneal ROIs.

[5] = Repeat dosing toxicity study: hematologic parameters; conditions: female CD1 mice, Up284 20 mg/kg, Bortezomib 1 mg/kg
Procedure: The mice were divided into three groups consisting of three female CD1 mice each. […] Terminal blood sampling for hematological and serum biochemical analysis was performed on Day 7 of the study, 24 h after the last dosing. […] Terminal bleeding and euthanasia were performed on Day 7, 24 h after the third dosing. Blood collection was carried out after 6 h fasting. Animals were injected IP with 2,2,2-tribromoethanol (200 mg/kg) and the blood was collected from orbital sinuses into dry microtainers without anticoagulant. For the serum collection, the tubes with collected blood were held at RT for 15–60 min after blood drawing to form a clot, and then were centrifuged at 9000 rpm for 20 min at 4°C. The collected serum was frozen within 60–80 min after blood drawing and was stored at -20°C for further clinical chemistry analysis. For the hematological study, 25 μL of fresh blood was quickly mixed with an equal volume of 0.36% solution of K2EDTA in saline. Assessment of the hematological parameters was performed using the BIO TE hematology analyzer MCL-3124 and consumable reagents (Cormay) within 2 h of the blood draw. For clinical chemistry analyses, ASAT, ALAT, ALP, LDH, GGT, CK, Creatinine, Urea and TP were determined in the serum using commercial kits according to the manufacturer’s instructions.

TOV21G and ES2 cells = experiment: Annexin V apoptosis assay; conditions: TOV21G and ES2, 12 h

T1 sequence (Q16186 2-407): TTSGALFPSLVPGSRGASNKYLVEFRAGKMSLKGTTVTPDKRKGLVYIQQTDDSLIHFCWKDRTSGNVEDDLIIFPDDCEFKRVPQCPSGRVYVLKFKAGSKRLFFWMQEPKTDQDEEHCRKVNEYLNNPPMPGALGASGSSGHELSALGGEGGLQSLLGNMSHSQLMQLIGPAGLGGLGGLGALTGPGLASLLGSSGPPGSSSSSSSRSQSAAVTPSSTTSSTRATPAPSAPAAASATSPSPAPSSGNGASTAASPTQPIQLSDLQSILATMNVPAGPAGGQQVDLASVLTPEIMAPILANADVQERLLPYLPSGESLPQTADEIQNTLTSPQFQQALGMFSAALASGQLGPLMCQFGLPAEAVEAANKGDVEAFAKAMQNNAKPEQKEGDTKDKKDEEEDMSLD

SMILES | competition for RA190B binding to the 42KDa cellular protein [1] | IC50 (HeLa cells) | IC50 (SKOV3 cells) | also measured
Cl.N[C@@H](Cc1ccccc1)C(=O)N1C/C(=C/c2ccc(Cl)c(Cl)c2)C(=O)/C(=C\c2ccc(Cl)c(Cl)c2)C1 [RA190, reference compound] | competed |  |  | MHC class I antigen presentation (SIINFEKL on H-2Kb) (TC1-OVA cells): enhance MHC class I presentation; stabilization of 4UbFL reporter (fold increase in luminescence) [2]: dose-dependent stabilization; accumulation of HMW polyUb proteins [3]: profound accumulation
C=CC(=O)N1CCC2(CC1)/C(=C\c1ccc(C#N)cc1)C(=O)/C2=C/c1ccc(C#N)cc1 [Up285] | competed | 25 nM | 60 nM | 
N#Cc1ccc(/C=C2/C(=O)/C(=C/c3ccc(C#N)cc3)C23CCN(C(=O)c2ccccc2)CC3)cc1 [Up288] |  | 280 nM | 390 nM | 
N#Cc1ccc(/C=C2/C(=O)/C(=C/c3ccc(C#N)cc3)C23CCN(C(=O)C(F)(F)F)CC3)cc1 [Up290] |  | 150 nM | 290 nM | 
CCCC(CCC)C(=O)N1CCC2(CC1)/C(=C\c1ccc(C#N)cc1)C(=O)/C2=C/c1ccc(C#N)cc1 [Up291] |  | 250 nM | 420 nM | 
N#Cc1ccc(/C=C2/C(=O)/C(=C/c3ccc(C#N)cc3)C23CCNC3)cc1 [Up302] |  | 80 nM | 170 nM | 
C=CC(=O)N1CCC2(C1)/C(=C\c1ccc(C#N)cc1)C(=O)/C2=C/c1ccc(C#N)cc1 (centres unmarked) [Up306] |  | 50 nM | 120 nM | 
CC(C)C[C@H](NC(=O)[C@H](Cc1ccccc1)NC(=O)c1cnccn1)B(O)O [bortezomib] | did not compete |  |  | MHC class I antigen presentation (SIINFEKL on H-2Kb) (TC1-OVA cells): did not; 4UbFL bioluminescence signal in muscle tissue vs tumor [4]: similarly enhanced the bioluminescence signal; MPV ([5]; group Mean): 5.70 fL; MPV ([5]; individual mice): 5.70 fL and 5.60 fL and 5.80 fL
N.N.[Cl][Pt][Cl] [cisplatin, reference compound] |  |  |  | Annexin-V positive cells, single agent (TOV21G and ES2 cells): minimal impact
